Data reported in patent US10450340B2, “3′-deamino-3′-(2″-pyrroline-1″-yl)-5-imino-13-deoxyanthracyclines and methods of preparation” (priority 2017, dated 2019).
Read-outs that look alike come from different tables or passages of the source. Marks after values point to notes of the source that are not given here.

Columns and labels:
SW-872 liposarcoma cells = experiment: Antiproliferative activity, resazurin assay, SW-872; assay type: cell-based; settings: Homo sapiens, read-out: Drug IC50 Values
Method: (§1) The growth inhibitory potency of 2-pyrrolino-5-imino-13-deoxydoxorubicin IV, 5-imino-13-deoxydoxorubicin III, and doxorubicin I against several cancer cell lines was evaluated using the resazurin fluorescence assay. The growth inhibitory potency was measured as the inhibitory concentration of a compound required to inhibit cell growth by 50% (IC50). The cancer cells were seeded into 96-well plates (0.5-1×10^4 cells/well) with appropriate media, incubated with drug for 48 hours, and then treated with resazurin (final concentration, 0.01%), a non-fluorescent blue dye, for 24 hours. The fluorescence (Ex560 nm/Em590 nm) was recorded using a BioTek SynergyHT multiwell plate fluorimeter. Healthy cells metabolize resazurin to resorufin, a fluorescent pink dye. Thus, fluorescence is a proxy for cell viability and used to determine the effect of cytotoxic agents on cell cultures. […] The activity of 2-pyrrolino-5-imino-13-deoxydoxorubicin IV was also greater than that of doxorubicin I, with IC50 values that were, on average, lower than those of doxorubicin I.

[1] = tested on: RD rhabdomyosarcoma cells; experiment: Antiproliferative activity, resazurin assay, RD; assay type: cell-based; settings: Homo sapiens, Rhabdomyosarcoma cell, read-out: Drug IC50 Values
Method: as §1

GCT histiocytoma cells = experiment: Antiproliferative activity, resazurin assay, GCT; assay type: cell-based; settings: Homo sapiens, read-out: Drug IC50 Values
Method: as §1

[2] = tested on: HeLa cervical adenocarcinoma cells; experiment: Antiproliferative activity, resazurin assay, HeLa; assay type: cell-based; settings: Homo sapiens, read-out: Drug IC50 Values
Method: as §1

[3] = tested on: T47D breast ductal carcinoma cells; experiment: Antiproliferative activity, resazurin assay, T47D; assay type: cell-based; settings: Homo sapiens, read-out: Drug IC50 Values
Method: as §1

human cancer cell lines = experiment: Antiproliferative activity, average over the five cancer cell lines of Table 1; assay type: cell-based; settings: for times more potent against cancer cells than a normal non-cancer cell line, on average: HADF IC50 / average cancer cell IC50; for IC50: Homo sapiens, read-out: Average Drug IC50 Values
Method: as §1
Even more unexpected and not predicted was that the selectivity of compound IV for cancer cells versus normal cells is shown to be 40 times greater compared to compound I (doxorubicin).

[4] = tested on: HADF human adult dermal fibroblasts; experiment: Cytotoxicity against normal cell line, resazurin assay; assay type: cell-based; settings: for IC50: Fibroblast, read-out: Drug IC50 Values
Method: as §1
The compounds were also tested against a normal non-cancer cell line, normal human fibroblasts (HADF).

MES-SA cells = experiment: Antiproliferative activity, doxorubicin sensitive uterine fibrosarcoma; assay type: cell-based; settings: Homo sapiens, read-out: Drug IC50 Values
Method: as §1
(§2) The compounds were further tested against a uterine fibrosarcoma cell line, MES-SA, sensitive to doxorubicin (compound I), and against a uterine fibrosarcoma cell line MES-SA/MX2 resistant to doxorubicin.

MES-SA/MX2 cells = experiment: Antiproliferative activity, doxorubicin resistant uterine fibrosarcoma; assay type: cell-based, human; settings: for IC50: Homo sapiens, read-out: Drug IC50 Values; for potency in the resistant fibrosarcoma strain compared to the sensitive strain (times less potent): MES-SA/MX2 versus MES-SA
Method: as §1, §2

[5] = tested on: HT1080-luc fibrosarcoma cells; experiment: Inhibitory potency against HT1080-luc in vitro; assay type: cell-based; settings: Homo sapiens, read-out: IC50±SEM
Method: The growth inhibitory potency of 2-pyrrolino-5-imino-13-deoxydoxorubicin IV, 5-imino-13-deoxydoxorubicin III, and doxorubicin I against several cancer cell lines was evaluated using the resazurin fluorescence assay. The growth inhibitory potency was measured as the inhibitory concentration of a compound required to inhibit cell growth by 50% (IC50). The cancer cells were seeded into 96-well plates (0.5-1×10^4 cells/well) with appropriate media, incubated with drug for 48 hours, and then treated with resazurin (final concentration, 0.01%), a non-fluorescent blue dye, for 24 hours. The fluorescence (Ex560 nm/Em590 nm) was recorded using a BioTek SynergyHT multiwell plate fluorimeter. Healthy cells metabolize resazurin to resorufin, a fluorescent pink dye. Thus, fluorescence is a proxy for cell viability and used to determine the effect of cytotoxic agents on cell cultures. […]
To assess in vivo drug activity against a primary tumor growth model of sarcoma, an experiment was conducted using commercially available human HT1080 fibrosarcoma cells engineered to express luciferase (HT1080-luc; PerkinElmer). The inhibitory potency of Compound III and Compound IV against HT1080-luc was measured in vitro by the methods described in Example 2. […]

HT1080-luc tumors = experiment: Primary tumor growth model of sarcoma in SCID mice; assay type: in vivo; settings: for Averge tumor weight / tumor weight reduced / tumor progression by in vivo bioluminescent imaging: day 20; for Averge tumor weight: SCID mice; for tumor weight reduced: 2.4 mg/kg, relative to PBS; for tumor progression by in vivo bioluminescent imaging: relative to PBS-only treatment
Method: To assess in vivo drug activity against a primary tumor growth model of sarcoma, an experiment was conducted using commercially available human HT1080 fibrosarcoma cells engineered to express luciferase (HT1080-luc; PerkinElmer). The inhibitory potency of Compound III and Compound IV against HT1080-luc was measured in vitro by the methods described in Example 2. […] HT1080-luc tumors were initiated in 6 week old female SCID mice (Harlan) by orthotopic subcutaneous injection of 1×10^6 cells in each flank. After allowing the tumors to establish for 6 days, mice were randomized to one of three treatment groups and treated three times per week by intraperitoneal injection with compound IV or compound III, 2.4 mg/kg in physiological buffered saline (PBS), or vehicle (PBS). […] At day 20 tumor weight was reduced 53% with compound IV while reduced only 36% with compound III at the same given dose. […] This is in contrast to 2-pyrrolinodoxorubicin which can be lethal at its effective dose range.

[6] = tested on: HT1080 fibrosarcoma cells; experiment: cells; assay type: cell-based; settings: for IC50 / IC10: 48 hours; for IC10: concentration inhibiting cell growth by 10%
Method: A fibrosarcoma cell line, HT1080, was used to measure the IC50's and IC10's (the inhibitory concentration of a compound required to inhibit cell growth by 10%) of Compound IV and Compound III, as described in Example 2. An IC50 concentration represents a therapeutic amount of compound. […] The cells were passaged and seeded at 5,000 cells/well on 96-well plates and the plates were incubated for 24 hours. After incubation, the media was changed and the IC50's and IC10's of compound IV and compound III were measured after 48 hours of incubation. Then, the IC50's of compound IV in the presence of compound III at an IC10 concentration and of compound III in the presence of compound IV at an IC10 concentration were measured after 48 hours of incubation. After the incubations, […] of 0.1% AlamarBlue in 1×PBS was added to each well. The plates were then incubated for a final 24 h. The plates were read on a microplate reader with an ex/em of 485/528.

advanced tumors = settings: patients with advanced tumors; cited from earlier work
[7] = literature; cited from earlier work
[8] = tested on: cancer cells versus normal cells; settings: as reported; cited from earlier work
topoisomerase II = settings: compared with doxorubicin; Stepankova et al.; cited from earlier work
[9] = SW872, SW-872 liposarcoma, 48 hours drug, resazurin, mean ±SEM of 3 assays
[10] = RD rhabdomyosarcoma, 48 hours drug, resazurin, mean ±SEM of 3 assays
[11] = GCT histiocytoma, 48 hours drug, resazurin, mean ±SEM of 3 assays
[12] = HeLa cervical adenocarcinoma, 48 hours drug, resazurin, mean ±SEM of 3 assays
[13] = T47D breast ductal carcinoma, 48 hours drug, resazurin, mean ±SEM of 3 assays
[14] = average of SW-872, RD, GCT, HeLa, T47D
[15] = HADF normal human adult dermal fibroblasts, resazurin
[16] = MES-SA uterine fibrosarcoma (sensitive), mean ±SEM of 3 assays
[17] = MES-SA/MX2 uterine fibrosarcoma (resistant), mean ±SEM of 3 assays
[18] = 2.4 mg/kg intraperitoneal three times per week

Row | Compound | IC50 (SW-872 liposarcoma cells; [9]) [µM] | IC50 [1, 10] [µM] | IC50 (GCT histiocytoma cells; [11]) [µM] | IC50 [2, 12] [µM] | IC50 [3, 13] [µM] | times more potent against cancer cells than a normal non-cancer cell line, on average (human cancer cell lines) [times] | IC50 (human cancer cell lines; [14]) [µM] | IC50 [4, 15] [µM] | IC50 (MES-SA cells; [16]) [µM] | IC50 (MES-SA/MX2 cells; [17]) [µM] | potency in the resistant fibrosarcoma strain compared to the sensitive strain (times less potent) (MES-SA/MX2 cells) | Averge tumor weight (HT1080-luc tumors; [18]) | tumor weight reduced (HT1080-luc tumors) [%] | tumor progression by in vivo bioluminescent imaging (HT1080-luc tumors) | IC10 ([6]; compound alone, HT1080) [µM] | other results
1 | COc1cccc2c1C(=O)c1c(O)c3c(c(O)c1C2=O)C[C@@](O)(C(=O)CO)C[C@@H]3O[C@H]1C[C@H](N)[C@H](O)[C@H](C)O1 [Compound I, doxorubicin] | 33.7 ± 7.5 | 0.43 ± 0.15 | 0.279 ± 0.036 | 0.605 ± 0.095 | 10.3 ± 7.8 | 2 | 9.06 | 18.9 | 0.55 ± 0.08 | 7.8 ± 1.8 | 14 times | – | – | – | – | –
2 | COc1cccc2c1C(=N)c1c(O)c3c(c(O)c1C2=O)C[C@@](O)(CCO)C[C@@H]3OC1CC(N)C(O)C(C)O1 (stereo partly drawn) [Compound III, 5-imino-13-deoxydoxorubicin] | 7.38 ± 0.45 | 11.9 ± 3.99 | 3.37 ± 0.35 | 9.82 ± 0.93 | 18 | 5.8 | 10.1 | 58.9 | 10.5 ± 1 | 90 | – | 1.40 g | 36 | not significantly reduced | 5.34 | IC50 ([5]; HT1080-luc in vitro, methods of Example 2): 10 ± 6.1 µM; times more potent in the presence of a nontherapeutic amount (IC10) of the other compound [6]: 35 times; IC50 ([6]; Homo sapiens, HT-1080, 48 h, HT1080, read-out: IC50 of compound III in the presence of an IC10 of compound IV): 1.78 µM; IC50 ([6]; Homo sapiens, HT-1080, 48 h, compound alone, HT1080, read-out: IC50): 63.4 µM; IC50 ([6]; compound alone, HT1080, read-out: IC50): 63.7 µM; anticancer activity in Phase I clinical trial (advanced tumors): anticancer activity in a variety of carcinomas, sarcomas, and bladder cancer; tolerability in Phase I clinical trial (advanced tumors): well tolerated with relatively mild toxicity for an anthracycline
3 | COc1cccc2c1C(=N)c1c(O)c3c(c(O)c1C2=O)C[C@@](O)(CCO)C[C@@H]3OC1CC(N2C=CCC2)C(O)C(C)O1 (stereo partly drawn) [Compound IV, 2-pyrrolino-5-imino-13-deoxydoxorubicin] | – | – | – | – | – | 81 | – | – | – | – | about equal in potency | 1.03* g | 53 | reduced significantly statistically | 0.84 | IC50 (SW-872 liposarcoma cells; SW872, 48 h): 0.57 ± 0.23 µM; IC50 ([1]; 48 h): 0.44 ± 0.13 µM; IC50 (GCT histiocytoma cells; 48 h): 0.175 ± 0.015 µM; IC50 ([2]; HeLa, 48 h): 0.467 ± 0.104 µM; IC50 ([3]; T47D, 48 h): 0.817 ± 0.561 µM; IC50 (human cancer cell lines): 0.49 µM; times more potent than compound I for inhibiting cell growth of cancer cells, on average (human cancer cell lines; ratio of average IC50 values): 18 times; times more potent than compound III for inhibiting cell growth of cancer cells, on average (human cancer cell lines; ratio of average IC50 values): 20 times; cytotoxicity against HADF (normal) cells relative to doxorubicin I ([4]; 39.75/18.9): half as cytotoxic; IC50 ([4]; Homo sapiens): 39.8 µM; IC50 (MES-SA cells; MES-SA): 0.76 ± 0.16 µM; IC50 (MES-SA/MX2 cells; MES-SA): 0.66 ± 0.003 µM; times more potent than compound I in an anthracycline resistant cell line (MES-SA/MX2 cells; MES-SA/MX2): 12 times; IC50 [5]: 3.51 ± 1.79 µM; tolerability in mice (HT1080-luc tumors; [18]): well tolerated by the mice with no deaths and no overt signs of toxicity; times more potent in the presence of a nontherapeutic amount (IC10) of the other compound ([6]; HT1080, IC50 alone / IC50 in combination): 12 times; IC50 ([6]; Homo sapiens, HT-1080, 48 h, compound alone, HT1080): 12.5 µM; IC50 ([6]; Homo sapiens, HT-1080, 48 h, read-out: IC50 of compound IV in the presence of an IC10 of compound III, HT1080): 1 µM; IC50 ([6]; read-out: IC50 of compound IV in the presence of an IC10 of compound III, HT1080): 1.01 µM
4 | COc1cccc2c1C(=O)c1c(O)c3c(c(O)c1C2=O)C[C@@](O)(C(=O)CO)C[C@@H]3OC1CC(N2C=CCC2)C(O)C(C)O1 (stereo partly drawn) [compound II, 3′-deamino-3′-(2″-pyrroline-1″-yl)doxorubicin] | – | – | – | – | – | – | – | – | – | – | – | – | – | – | – | toxicity relative to doses required for an anticancer effect [7]: toxic or lethal at or below doses that are required for an anticancer effect; selectivity for cancer cells versus normal cells [8]: little or no selectivity; ability of DNA modifications to inhibit catalytic activity of topoisomerase II (topoisomerase II): does not differ significantly from that of doxorubicin
